Test results as given in patent publication US20220128542A1, “TREATMENT EFFICIENCY EVALUATION” (TX MEDIC AB, priority 2019, published 2022).

Test system: brain of rats subjected to severe traumatic brain injury (sTBI)
Test: Ingenuity pathway analysis of differentially regulated genes after sTBI (canonical pathways, diseases and molecular functions; Example 4)
Set-up: species or system rat
Description: Pathway analysis of the differentially regulated genes was carried out using the Ingenuity pathway analysis package. The analysis was performed with special reference to pathways and molecular processes and diseases associated with neurodegenerative disease, including dementia, Alzheimer's disease, ALS, TBI and stroke, and with scarring and fibrosis, including glaucoma and normal pressure hydrocephalus (NPH) after subarachnoid haemorrhage.

[1] = TBI + 1 mg/kg LMW-DS, 2 days after TBI
[2] = TBI + 1 mg/kg LMW-DS, 7 days after TBI, relative to control
[3] = TBI + 1 mg/kg LMW-DS, 7 days after TBI
[4] = TBI + 5 mg/kg LMW-DS, 2 days after TBI

sodium salt of dextran sulfate [LMW-DS]
Effect on diseases or functions annotation: Apoptosis of muscle cells [1]: Activated | Effect on diseases or functions annotation: Behavior [1]: Activated | Effect on diseases or functions annotation: Binding of tumor cell lines [1]: Activated | Effect on diseases or functions annotation: Carcinoma [1]: Inhibited | Effect on diseases or functions annotation: Cell death [1]: Inhibited | Effect on diseases or functions annotation: Cell death of blood cells [1]: Activated | Effect on diseases or functions annotation: Cell death of immune cells [1]: Activated | Effect on diseases or functions annotation: Cell movement [1]: Activated | Effect on diseases or functions annotation: Cell movement of muscle cells [1]: Inhibited | Effect on diseases or functions annotation: Cell movement of vascular smooth muscle cells [1]: Inhibited | Effect on diseases or functions annotation: Cell proliferation of T lymphocytes [1]: Inhibited | Effect on diseases or functions annotation: Cellular homeostasis [1]: Activated | Effect on diseases or functions annotation: Development of connective tissue cells [1]: Inhibited | Effect on diseases or functions annotation: Differentiation of bone cells [1]: Inhibited | Effect on diseases or functions annotation: Differentiation of connective tissue cells [1]: Activated | Effect on diseases or functions annotation: Differentiation of hematopoietic progenitor cells [1]: Activated | Effect on diseases or functions annotation: Differentiation of osteoclasts [1]: Inhibited | Effect on diseases or functions annotation: Digestive organ tumor [1]: Inhibited | Effect on diseases or functions annotation: Experimentally-induced arthritis [1]: Inhibited | Effect on diseases or functions annotation: Extracranial solid tumor [1]: Activated | Effect on diseases or functions annotation: Genital tumor [1]: Activated | Effect on diseases or functions annotation: Incidence of tumor [1]: Inhibited | Effect on diseases or functions annotation: Inflammation of absolute anatomical region [1]: Inhibited | Effect on diseases or functions annotation: Inflammation of body cavity [1]: Inhibited | Effect on diseases or functions annotation: Inflammation of joint [1]: Inhibited | Effect on diseases or functions annotation: Inflammation of organ [1]: Inhibited | Effect on diseases or functions annotation: Inflammatory response [1]: Activated | Effect on diseases or functions annotation: Interaction of mononuclear leukocytes [1]: Activated | Effect on diseases or functions annotation: Leukocyte migration [1]: Activated | Effect on diseases or functions annotation: Leukopoiesis [1]: Activated | Effect on diseases or functions annotation: Lymphopoiesis [1]: Activated | Effect on diseases or functions annotation: Malignant solid tumor [1]: Inhibited | Effect on diseases or functions annotation: Migration of cells [1]: Activated | Effect on diseases or functions annotation: Necrosis [1]: Inhibited | Effect on diseases or functions annotation: Non-hematologic malignant neoplasm [1]: Inhibited | Effect on diseases or functions annotation: Pelvic tumor [1]: Inhibited | Effect on diseases or functions annotation: Proliferation of blood cells [1]: Inhibited | Effect on diseases or functions annotation: Proliferation of lymphatic system cells [1]: Inhibited | Effect on diseases or functions annotation: Proliferation of lymphocytes [1]: Inhibited | Effect on diseases or functions annotation: Quantity of blood cells [1]: Inhibited | Effect on diseases or functions annotation: Quantity of bone [1]: Inhibited | Effect on diseases or functions annotation: Quantity of cells [1]: Inhibited | Effect on diseases or functions annotation: Quantity of connective tissue cells [1]: Activated | Effect on diseases or functions annotation: Quantity of leukocytes [1]: Inhibited | Effect on diseases or functions annotation: Quantity of lymphatic system cells [1]: Inhibited | Effect on diseases or functions annotation: Quantity of phagocytes [1]: Inhibited | Effect on diseases or functions annotation: Rheumatic Disease [1]: Inhibited | Effect on diseases or functions annotation: Solid tumor [1]: Inhibited | Effect on diseases or functions annotation: Survival of organism [1]: Inhibited | Effect on diseases or functions annotation: Synthesis of hormone [1]: Activated | Effect on diseases or functions annotation: Thrombus [1]: Activated | Effect on diseases or functions annotation: Transport of molecule [1]: Activated | z score, Ingenuity canonical pathway: Adrenomedullin signaling pathway [2]: −1 | z score, Ingenuity canonical pathway: ERK5 Signaling [2]: −2 | z score, Ingenuity canonical pathway: Endothelin-1 Signaling [2]: 1.342 | z score, Ingenuity canonical pathway: G Beta Gamma Signaling [2]: 1 | z score, Ingenuity canonical pathway: NF-κB Signaling [2]: −0.447 | z score, Ingenuity canonical pathway: Opioid Signaling Pathway [2]: −0.447 | z score, Ingenuity canonical pathway: Role of NFAT in Regulation of the Immune Response [2]: 0.816 | z score, Ingenuity canonical pathway: Synaptic Long Term Depression [2]: 1.342 | Diseases or functions annotation: Abdominal cancer [3]: Inhibited | Diseases or functions annotation: Abdominal carcinoma [3]: Inhibited | Diseases or functions annotation: Cell movement [3]: Inhibited | Diseases or functions annotation: Cell viability [3]: Inhibited | Diseases or functions annotation: Concentration of hormone [3]: Inhibited | Diseases or functions annotation: Development of connective tissue cells [3]: Inhibited | Diseases or functions annotation: Development of malignant tumor [3]: Inhibited | Diseases or functions annotation: Developmental process of synapse [3]: Inhibited | Diseases or functions annotation: Differentiation of bone cells [3]: Inhibited | Diseases or functions annotation: Differentiation of connective tissue cells [3]: Inhibited | Diseases or functions annotation: Digestive organ tumor [3]: Inhibited | Diseases or functions annotation: Digestive system cancer [3]: Inhibited | Diseases or functions annotation: Epithelial neoplasm [3]: Inhibited | Diseases or functions annotation: Formation of plasma membrane [3]: Inhibited | Diseases or functions annotation: Frequency of tumor [3]: Inhibited | Diseases or functions annotation: Gastrointestinal tumor [3]: Inhibited | Diseases or functions annotation: Hematologic cancer [3]: Inhibited | Diseases or functions annotation: Hematopoietic neoplasm [3]: Inhibited | Diseases or functions annotation: Incidence of tumor [3]: Inhibited | Diseases or functions annotation: Large intestine neoplasm [3]: Inhibited | Diseases or functions annotation: Liver tumor [3]: Inhibited | Diseases or functions annotation: Malignant genitourinary solid tumor [3]: Inhibited | Diseases or functions annotation: Metabolism of hormone [3]: Inhibited | Diseases or functions annotation: Pelvic tumor [3]: Inhibited | Diseases or functions annotation: Quantity of Ca^2+ [3]: Inhibited | Diseases or functions annotation: Quantity of carbohydrate [3]: Activated | Diseases or functions annotation: Quantity of metal [3]: Activated | Diseases or functions annotation: Synthesis of lipid [3]: Activated | Diseases or functions annotation: Tumorigenesis of epithelial neoplasm [3]: Inhibited | Diseases or functions annotation: Tumorigenesis of tissue [3]: Inhibited | Diseases or functions annotation: Vaso-occlusion [3]: Activated | Diseases or functions annotation: Weight gain [3]: Activated | Ingenuity canonical pathway: Adrenomedullin signaling pathway [3]: Inhibited | Ingenuity canonical pathway: ERK5 Signaling [3]: Inhibited | Ingenuity canonical pathway: Endothelin-1 Signaling [3]: Activated | Ingenuity canonical pathway: G Beta Gamma Signaling [3]: Activated | Ingenuity canonical pathway: NF-κB Signaling [3]: Inhibited | Ingenuity canonical pathway: Opioid Signaling Pathway [3]: Inhibited | Ingenuity canonical pathway: Role of NFAT in Regulation of the Immune Response [3]: Activated | Ingenuity canonical pathway: Synaptic Long Term Depression [3]: Activated | Effect on diseases or functions annotation: Abdominal cancer [4]: Inhibited | Effect on diseases or functions annotation: Abdominal carcinoma [4]: Inhibited | Effect on diseases or functions annotation: Abdominal neoplasm [4]: Inhibited | Effect on diseases or functions annotation: Apoptosis [4]: Activated | Effect on diseases or functions annotation: Behavior [4]: Inhibited | Effect on diseases or functions annotation: Carcinoma [4]: Inhibited | Effect on diseases or functions annotation: Cell death [4]: Activated | Effect on diseases or functions annotation: Cell death of antigen presenting cells [4]: Inhibited | Effect on diseases or functions annotation: Cell death of immune cells [4]: Inhibited | Effect on diseases or functions annotation: Cell death of tumor cell lines [4]: Inhibited | Effect on diseases or functions annotation: Cell movement [4]: Inhibited | Effect on diseases or functions annotation: Cell movement of tumor cell lines [4]: Inhibited | Effect on diseases or functions annotation: Cell proliferation of leukocyte cell lines [4]: Inhibited | Effect on diseases or functions annotation: Cellular homeostasis [4]: Inhibited | Effect on diseases or functions annotation: Chemotaxis [4]: Inhibited | Effect on diseases or functions annotation: Concentration of prostaglandin [4]: Inhibited | Effect on diseases or functions annotation: Development of vasculature [4]: Inhibited | Effect on diseases or functions annotation: Digestive organ tumor [4]: Inhibited | Effect on diseases or functions annotation: Digestive system cancer [4]: Inhibited | Effect on diseases or functions annotation: Edema [4]: Activated | Effect on diseases or functions annotation: Epithelial neoplasm [4]: Inhibited | Effect on diseases or functions annotation: Extracranial solid tumor [4]: Inhibited | Effect on diseases or functions annotation: Feeding [4]: Inhibited | Effect on diseases or functions annotation: Growth of tumor [4]: Inhibited | Effect on diseases or functions annotation: Hematologic cancer [4]: Inhibited | Effect on diseases or functions annotation: Incidence of tumor [4]: Inhibited | Effect on diseases or functions annotation: Leukocyte migration [4]: Inhibited | Effect on diseases or functions annotation: Leukopoiesis [4]: Inhibited | Effect on diseases or functions annotation: Locomotion [4]: Inhibited | Effect on diseases or functions annotation: Lymphocyte homeostasis [4]: Inhibited | Effect on diseases or functions annotation: Lymphocytic cancer [4]: Inhibited | Effect on diseases or functions annotation: Lymphocytic neoplasm [4]: Inhibited | Effect on diseases or functions annotation: Lymphopoiesis [4]: Inhibited | Effect on diseases or functions annotation: Lymphoproliferative disorder [4]: Inhibited | Effect on diseases or functions annotation: Malignant solid tumor [4]: Inhibited | Effect on diseases or functions annotation: Metabolism of hormone [4]: Inhibited | Effect on diseases or functions annotation: Migration of cells [4]: Inhibited | Effect on diseases or functions annotation: Necrosis [4]: Inhibited | Effect on diseases or functions annotation: Neoplasia of leukocytes [4]: Inhibited | Effect on diseases or functions annotation: Non-melanoma solid tumor [4]: Inhibited | Effect on diseases or functions annotation: Proliferation of hematopoietic progenitor cells [4]: Inhibited | Effect on diseases or functions annotation: Quantity of cells [4]: Inhibited | Effect on diseases or functions annotation: Quantity of epithelial tissue [4]: Inhibited | Effect on diseases or functions annotation: Quantity of neuroglia [4]: Inhibited
